Reference: patent US20070219213A1, “Use of Adrenergic N-Phenylpiperazine Antagonists, Pahrmaceutical Compositions Containning Them, and Methods of Preparing Them” (priority 2004, published 2007)
Entries after “also recorded” stand apart in the source; their conditions may differ.

How the values were obtained:
[1] = tested on: phenylephrine vasopressor effects; assay: Inhibition of phenylephrine vasopressor effects in anesthetized rabbits; type: in vivo; settings: rabbit, i.v., versus control curve
Experimental: Animal and Homodynamic Measurements:
The experiments were performed with male rabbits weighing 3 kg, from the CECAL (Centro de Criação de Animais de Laboratório) at Fundação Oswaldo Cruz. The animals were anesthetized with sodium pentobarbital (40 mg/kg) in the ear marginal vein, and anesthesia maintenance was obtained with supplemental intravenous (i.v.) doses of 5 mg/kg as necessary. The […] were tracheomized, inserted with a polyethylene canule, and immobilized with pancuronium bromide (1 mg/kg, i.v.), with supplemental doses of 0.2 mg/kg for each hour of experiment and artificially ventilated with a mechanical fan (Rodent ventilator 7025, Ugo Basile) with a volume of 10 ml/kg and frequency from 40 to 50 incursions/min. The right femoral vein was catheterized for drug administration.
The arterial pressure was monitored through abdominal aorta catheter via the right femoral artery and connected to a quartz transductor Hewlett Packard (1290 A), which was connected to an arterial pressure processor and recorder Hewlett Packard (system 7754 with amplifier 8805 B).
The systolic (SAP) and diastolic (DAP) arterial pressures were obtained directly from the records and the average arterial pressure (AAP) was calculated by DAP's Sum with a third of the differential pressure [[…]]. The cardiac frequency was determined by counting the pressure waves, visualized with the speed increase of the recorder paper.
The cardiac debit (DC) was monitored using an electromagnetic probe, connected to a Skalar flowmeter model MDL 1401. After left thoraxatomy, between the second and third ribs, was made an incision in the pericardium and the heart was exposed to enable the visualization and dissection of the ascending aorta for installation of the electromagnetic probe. The systemic vascular resistance (SVR) was calculated as a quotient of the average arterial pressure by the cardiac debit, multiplied by a conversion factor 80 (SVR=AAP/DC×80) and expressed in dyn/seg/cm-5.
At the conclusion of the anesthetic-surgical procedures, a 15-minute period was allowed for stabilization of the homodynamic parameters. Before any pharmacological manipulation the average arterial pressure, cardiac frequency and cardiac debit measurements were obtained. These values were considered basal homodynamic values.
Dose-Response Curve of the Phenylephrine Vasopressor Effect:
After surgical procedures and stabilization of the homodynamic parameters, a dose-response curve of the phenylephrine pressure effects was performed ([…], i.v.), that were named control curves. […]
The results were expressed as average±standard deviation (E.P.M.) The administration effects of LASSBio 772 with regard to the basal values were analyzed through variance analysis (ANOVA) for repeated measurements. […]

α1A = target: T1, α1A (Oryctolagus cuniculus, UniProt O02824); assay: Binding study in rabbit liver
T1 construct: from tissue
T1 sequence (O02824 1-466): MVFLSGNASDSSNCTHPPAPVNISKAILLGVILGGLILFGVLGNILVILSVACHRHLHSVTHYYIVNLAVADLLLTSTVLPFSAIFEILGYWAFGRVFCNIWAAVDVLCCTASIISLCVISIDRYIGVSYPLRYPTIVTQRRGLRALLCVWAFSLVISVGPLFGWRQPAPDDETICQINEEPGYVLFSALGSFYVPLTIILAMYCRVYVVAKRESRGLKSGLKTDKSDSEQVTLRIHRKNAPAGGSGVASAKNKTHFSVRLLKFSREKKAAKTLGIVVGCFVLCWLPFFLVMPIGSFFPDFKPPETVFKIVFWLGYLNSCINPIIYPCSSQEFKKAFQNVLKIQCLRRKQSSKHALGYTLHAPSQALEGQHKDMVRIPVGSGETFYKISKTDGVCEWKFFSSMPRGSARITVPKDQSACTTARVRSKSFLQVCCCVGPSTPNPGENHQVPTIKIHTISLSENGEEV

H1 receptors = target: T2, H1 receptors (Cavia porcellus, UniProt P31389); assay: Cobaio (guinea pig) trachea contraction induced by histamine; type: cell-based; settings: histamine 100 microM, compound 3 nM-30 microM
T2 construct: from tissue; host or cells: guinea pig trachea strips
T2 sequence (P31389 whole entry): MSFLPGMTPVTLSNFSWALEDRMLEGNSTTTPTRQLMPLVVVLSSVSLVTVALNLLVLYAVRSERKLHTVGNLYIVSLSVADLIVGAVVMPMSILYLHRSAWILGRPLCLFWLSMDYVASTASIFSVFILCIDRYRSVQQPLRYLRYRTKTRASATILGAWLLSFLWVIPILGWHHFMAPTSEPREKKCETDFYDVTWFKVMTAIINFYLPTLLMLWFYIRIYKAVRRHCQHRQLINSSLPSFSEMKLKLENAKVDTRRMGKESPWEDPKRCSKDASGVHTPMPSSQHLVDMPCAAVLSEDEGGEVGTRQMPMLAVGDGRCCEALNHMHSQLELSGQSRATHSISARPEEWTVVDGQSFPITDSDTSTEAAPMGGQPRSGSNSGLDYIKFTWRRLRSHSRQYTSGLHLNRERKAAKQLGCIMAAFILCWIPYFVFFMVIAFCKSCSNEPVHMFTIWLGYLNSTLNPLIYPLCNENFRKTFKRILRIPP
Source text: Cobaios albinos from both sexes, weighing between 400 and 600 g were used in this experiment. The animals were sacrificed by cervical displacement and posterior bleed. Then, their tracheas were removed, kept in 5 microM indometacin added Krebs-Henseleit physiologic solution and oxygenated with carbogenic mixture (95% O2 and 5% CO2), proceeding the removal of the connective and adhered adipose tissue. From these tracheas were obtained segments with 4-6 rings, that are sectioned in the opposite side of the smooth musculature, originating strips used in the contractions assay (ARAKIDA et al., J. Pharmacol. Exper. Therap., 287: 633-639, 1998).
These strips were adapted in glass containers of 1.0 mL containing nutritious solution and continuous aeration with carbogenic mixture. The containers are maintained in a bath (Ugo Basile 4050) at the constant temperature of 37±0.50° C., mimicking thus physiologic terms in vitro. The trachea strips were connected to isometric force transducers (Ugo Basile 7011-4), submitted to a tension of 1 g and rested for 1 hour, changing the solution in 15 minute intervals, to obtain the balance to this tension.
After the period, the organ is treated with agonists that will induce contractions. […] The tissue viability was evaluated by contraction induction with histamine 100 microM or carbacol 10 microM. […]

[2] = tested on: alpha 1A and alpha 1B adrenoceptors (rabbit aorta, α1A > α1B); assay: Vasoconstriction assay in rabbit aorta induced by phenylephrine; type: cell-based; settings: for pKB (apparent antagonist potency): Schild equation, 3-300 nM
Experimental: Vasoconstriction Assay in Rabbit Aorta Induced by Phenylephrine
Aorta rings withdrawn from young male rabbits (1500-1700 g) were tensionated to 2 g (20 mN) and kept in Krebs solution, containing 10 mM Hepes, for 30 minutes, under continuous aeration. During this period, eventual tension adjustments were performed until stabilization in 2 g, always with renewal of Krebs solution. Then, vasoconstrictions were induced by 60 mM KCl solution, in each ring, to verify the viability of the organ on the day of the experiment. The preparation was submitted to contraction with phenylephrine (5×10^−5 M) and, then the rings were washed to reach the basal line (0% of vasoconstriction). The procedure was repeated until obtainment of a constant curve. Then, a curve, using increasing concentrations of phenylephrine (5×10^−9-5×10^−4 M), was performed for each ring, as a positive control. The segments were washed to reach the basal line (0% of vasoconstriction) and incubated with the test compounds, individually, for 30 minutes. A second phenylephrine curve was performed and the obtained data compared to the first control curve. The results were analyzed by one-way ANOVA software from Microcal Origin 4.1. The aorta rings were used once for each compound.
Determination of the LASSBio 772 Antagonist Potency (pKB) on the Vasoconstriction of Rabbit or Rat Thoracic Aorta.
cr is the ratio between phenylephrine concentrations in the presence and absence of antagonist; and
B is the antagonist's concentration.

COc1ccccc1N1CCN(CCc2ccc3c(c2)OCO3)CC1 [LASSBio 772, 1-(2-1,3-Benzodioxol-5-yl-ethyl)-4-(2-methoxy-phenyl)-piperazine]
blockade of phenylephrine effects [1]: significantly blocked; also recorded: prevented the phenylephrine hypo-tensor effect | IC50 (α1A): 0.0049 µM | IC50 (H1 receptors): 0.309 µM | antagonist activity on vasoconstriction ([2]; 30 microM compound, 5×10^−4 M phenylephrine): significant antagonist activity | Kb ([2]; rabbit aorta, phenylephrine): ~0.0141 µM | pKB (apparent antagonist potency) ([2]; rabbit aorta, phenylephrine): 7.85 | pKB (apparent antagonist potency) ([2]; rabbit aorta, phenylephrine, listed as LASSBio-772): around 7.85
